Reference: ChEMBL document CHEMBL1275357, “Inhibition of Helicobacter pylori aminoacyl-tRNA amidotransferase by chloramphenicol analogs” (Bioorg Med Chem, 2010)

Assay: Competitive inhibition of Helicobacter pylori aminoacyl-tRNA […] GatCAB

SMILES | Ki [µM]
CN(C)c1ncnc2c1ncn2[C@@H]1O[C@H](CO)[C@@H](NC(=O)[C@@H](N)CCS(C)(=O)=O)[C@H]1O | 4
CS(=O)(=O)CC[C@H](N)C(=O)N[C@H](CO)[C@H](O)c1ccc(S(C)(=O)=O)cc1 | 120
O=C(N[C@H](CO)[C@H](O)c1ccc([N+](=O)[O-])cc1)C(Cl)Cl [CHLORAMPHENICOL] | 1850
CS(=O)(=O)CC[C@H](N)C(=O)N[C@H](CO)[C@H](O)c1ccc([N+](=O)[O-])cc1 | 27
CS(=O)(=O)CC[C@H](N)C(=O)N[C@@H](CO)[C@@H](O)c1ccc([N+](=O)[O-])cc1 | 160
CS(=O)(=O)CC[C@H](N)C(=O)N[C@H](CO)[C@@H](O)c1ccc([N+](=O)[O-])cc1 | 2800
CS(=O)(=O)CC[C@H](N)C(=O)N[C@@H](CO)[C@H](O)c1ccc([N+](=O)[O-])cc1 | 370
CS(=O)(=O)CC[C@H](N)C(=O)N[C@H](CO)[C@H](O)c1ccccc1 | 400
